Assay results: article PMC8429736, “Pharmacological characterization of mutant huntingtin aggregate-directed PET imaging tracer candidates” (Scientific Reports, 2021)

Assays:
[1] = molecular target: beta amyloid plaques (6E10 antibody) (Homo sapiens, UniProt P05067); experiment: HR ARG co-registration with 6E10 antibody, human AD brain sections; type: binding; conditions: 10 nM CHDI-180, 10 nM CHDI-626, 0.1 nM PiB, 1 nM T808
Exon1-Q46 aggregates = molecular target: T1, Exon1-Q46 aggregates (Homo sapiens, UniProt P42858, INS38QQQQQQQQQQQQQQQQQQQQQQQQQ); experiment: RBA competition binding against tritiated 3, Exon1-Q46 aggregates; conditions: 0.3 nM tritiated 3 as radioligand; 1 µM aggregates; mean ± SD; read-out: IC50 Exon1-Q46
T1 construct: MBP-HTT(1-89)Q46-His(6x); MBP (N, cleaved yes); made in house; host or cells: E. coli BL21 (DE3)
Experimental: (§1) For the competition assay format, Q46 or Exon1-Q46 aggregates at 1 µM (sample volume 150 µL) were pre-incubated in a 96-well round bottom plate (Corning, #3365) for 20 min with test compounds at room temperature (assay buffer 50 mM Tris–HCl pH 8.0, 150 mM NaCl). […] Radioligand 3 at 0.3 nM was added and incubated for 1 h at 37 °C.
(§2) Samples were then transferred onto a 96-well GF/B filter plate (Perkin Elmer, #6005177) using a Filtermate Harvester, aspirated by vacuum and wells washed twice with 200 µL PBS. After drying the filter plates for 1 h at 55 °C the back of the plate was sealed with aluminum cover and 30 µL of scintillation fluid (Perkin Elmer, #6013641) per well was added. The tops of the plates were sealed, and the plates were incubated for 15 min in the dark and counted in a TopCount or MicroBeta2 reader (both Perkin Elmer).
(§3) Raw sample data collected as counts per minute (cpm) were normalized towards assay controls: 0% inhibition = radioligand + protein + vehicle, 100% inhibition = radioligand + protein + 1 µM unlabeled ligand. A 4-parameter […] fit was applied to generate IC50 values.

[2] = tested on: beta amyloid/tau aggregates in post-mortem AD patient brain homogenates; experiment: ADbh RBA competition format; type: binding, human; conditions: for displacement of bound 5: radioligand 5
Experimental: (§4) For RBA in vitro binding assays, brain tissue was sliced (50 µm), weighed and homogenized in PBS (Gibco, 14190-94), 0.1% BSA with a glass pestle (10 strokes) at a concentration of 12–15 mg wet tissue per mL buffer. The crude homogenate concentration was then adjusted to 10 mg/mL (wet tissue) and stored as single-use aliquots at -80 °C.
RBA experiments using Alzheimer’s disease brain homogenates (ADbh RBA) followed the same assay principle as the RBA with recombinant HTT protein, using 0.68 mg/mL homogenate (100 µg per well with 150 µL assay volume) in assay buffer PBS, 0.01% Pluronic F127 (Sigma. P2443) and 1% DMSO after compound addition. […] Incubation at room temperature was conducted for 20 min after compound addition and for 5 h after radioligand addition. For the competition format, raw cpm were normalized towards assay controls as before, to obtain inhibition between 0 and 100%. For saturation binding, raw cpm were converted into nM as before, using a calibration line of total added radioligand, and normalized to mg of added homogenate to finally obtain pmol/mg.

[3] = molecular target: phospho-Tau tangles (AT8 antibody) (Homo sapiens, UniProt P10636); experiment: HR ARG co-registration with AT8 antibody, human AD brain sections; type: binding; conditions: 10 nM CHDI-180, 10 nM CHDI-626, 0.1 nM PiB, 1 nM T808
Q46 aggregates = experiment: RBA competition binding against tritiated 3, Q46 aggregates; conditions: 0.3 nM tritiated 3 as radioligand; 1 µM aggregates; mean ± SD
Experimental: as §1, §2, §3

[4] = molecular target: beta amyloid/tau aggregates in post-mortem AD patient brain homogenates; experiment: ADbh RBA saturation (direct) binding; set-up: species or system human; conditions: 100 µg homogenate per well
Experimental: as §4
RBA experiments using Alzheimer’s disease brain homogenates (ADbh RBA) followed the same assay principle as the RBA with recombinant HTT protein, using 0.68 mg/mL homogenate (100 µg per well with 150 µL assay volume) in assay buffer PBS, 0.01% Pluronic F127 (Sigma. P2443) and 1% DMSO after compound addition. Competition experiments were conducted with 0.5 nM radioligand 4 and 50 µg homogenate per well. Incubation at room temperature was conducted for 20 min after compound addition and for 5 h after radioligand addition. For the competition format, raw cpm were normalized towards assay controls as before, to obtain inhibition between 0 and 100%. For saturation binding, raw cpm were converted into nM as before, using a calibration line of total added radioligand, and normalized to mg of added homogenate to finally obtain pmol/mg.

T1 sequence (P42858 with tags, fused parts or gaps with the stated changes): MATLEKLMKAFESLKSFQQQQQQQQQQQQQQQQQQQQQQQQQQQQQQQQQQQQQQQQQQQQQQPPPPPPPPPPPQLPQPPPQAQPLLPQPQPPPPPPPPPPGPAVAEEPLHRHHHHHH
Sequence of phospho-Tau tangles (AT8 antibody) (P10636 623-695 limits assumed): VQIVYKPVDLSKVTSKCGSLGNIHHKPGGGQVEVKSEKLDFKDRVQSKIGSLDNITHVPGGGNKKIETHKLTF
Sequence of beta amyloid plaques (6E10 antibody) (P05067 672-713 limits assumed): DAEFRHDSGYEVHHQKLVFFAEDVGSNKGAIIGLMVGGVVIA

## FCCC1CCN(c2ccn3c(n2)nc2ccccc23)CC1 [Compound T808]
[1]
  co-registration with 6E10-positive beta amyloid plaques: not with 6E10 antibody
Exon1-Q46 aggregates
  IC50: > 333 nM
[2]; radioligand 4
  heterologous competition with radioligand 4: could not compete
[2]
  displacement of bound 5: ~ 50%
[3]
  co-registration with AT8-positive phospho-Tau immunoreactivity: co-registered with AT8
Q46 aggregates
  IC50: > 333 nM

## CNc1ccc(-c2nc3ccc(O)cc3s2)cc1F [Flutemetamol]
[2]; radioligand 4
  heterologous competition with radioligand 4: complete displacement
[2]
  displacement of bound 5: complete displacement

## CNc1ccc(-c2nc3ccc(O)cc3s2)cc1 [PiB]
Exon1-Q46 aggregates
  IC50: 72.5 ± 0.4 nM
[4]
  Kd: 3.4 nM
Q46 aggregates
  IC50: > 333 nM

## [11CH3]Nc1ccc(-c2nc3ccc(O)cc3s2)cc1 [PiB]
[2]; radioligand 4
  heterologous competition with radioligand 4: complete displacement
[2]; radioligand 4, compound 0.1 µM
  displacement of 4 at 0.1 µM: fully displace
[2]
  displacement of bound 5: complete displacement
[3]
  co-registration with AT8-positive phospho-Tau immunoreactivity: not with AT8 immunoreactivity
[4]
  Bmax, AD brain homogenate: 10.5 pmol/mg
